“Also recorded” adds a separate entry of the source. Where two headings read alike, the source gives them in different places.
Assays:
[1] = system: lsr expression in E. coli (lsr-lacZ reporter strains); experiment: QS response (lsr expression): AI-2 dependent β-galactosidase production, Miller assay; format: cell-based, Escherichia coli
Description: The panel of C1-alkyl analogs was screened to identify QS modulators in the enteric bacteria E. coli and S. typhimurium. Transcription of the QS associated lsr operon, by using lsr-lacZ reporter strains (Table 2) which produce β-galactosidase in response to added AI-2 was monitored. In order to first establish if the analogs were agonists or antagonists in the QS circuit, the analogs were incubated with E. coli LW7 pLW11 and S. typhimurium MET715 (FIG. 19a-b) both of which are luxS^−. None of the analogs, except ethyl-DPD behaved as agonists for lsr expression. Previous studies investigating AI-2 antagonism in P. aeruginosa or in S. typhimurium were carried out using chemically synthesized AI-2 added to luxS^− cells. […] The same trends were obtained by adding a 1:1 ratio of enzymatically synthesized AI-2 and DPD analogs to the luxS^− strains E. coli LW7 pLW11 and S. typhimurium MET715 (FIG. 11a-b). None of the tested DPD analogs were bacteriocidal or bacteriostatic as the OD600 values of E. coli ZK126 pLW11 and S. typhimurium MET708 in the presence and absence of the analogs were similar (FIG. 10). Though the QS circuitry of the enteric organisms, E. coli and S. typhimurium are homologous they respond differently to the DPD analogs. The E. coli QS circuitry is susceptible to being silenced by a variety of DPD analogs of different shapes and sizes whereas in S. typhimurium, only a handful of DPD analogs could antagonize the action of AI-2. […] Isobutyl-DPD emerged as an effective and non-species-specific quencher; causing significant lsr expression knockdowns in both E. coli and S. typhimurium.
The QS response indicated by lsr gene expression was analyzed in pure culture studies by culturing E. coli LW7 pLW11, E. coli ZK126 pLW11 and S. typhimurium MET708, S. typhimurium MET715 overnight in LB medium supplemented with appropriate antibiotics as stated previously. These cells were then diluted into fresh LB medium (with antibiotics) and grown to an OD600 of 0.8-1.0 at 30° C., 250 rpm. Cells were then collected by centrifugation at 10,000×g for 10 minutes, and resuspended in 10 mM phosphate buffer. AI-2 (20 μM) and the respective analog (20 μM) were added to the E. coli or S. typhimurium suspension for 2 hours at 37° C. AI-2 dependent β-galactosidase production was quantified by the Miller assay.
The QS response indicated by lsr gene expression was analyzed in pure culture studies by culturing E. coli LW7 pLW11 and S. typhimurium MET715 overnight at 30° C. in LB medium supplemented with appropriate antibiotics as stated previously. These cells were then diluted into fresh LB medium (with antibiotics) and grown to an OD600 of 0.4-0.8 at 37° C., 250 rpm. Cells were then collected by centrifugation at 10,000×g for 10 min and resuspended in 10 mM phosphate buffer. AI-2 (20 μM) and the respective analog (20 μM) were added to the E. coli or S. typhimurium suspension for 2 h at 37° C. AI-2 dependent β-galactosidase production was quantified by the Miller assay.
The QS response indicated by lsr gene expression was analyzed in pure culture studies by culturing E. coli LW7 pLW11, E. coli ZK126 pLW11 and S. typhimurium MET708, S. typhimurium MET715 overnight in LB medium individually supplemented with appropriate antibiotics, as specified above. These cells were diluted into fresh LB medium (with antibiotics) and grown to an OD600 of 0.8-1.0 at 30° C., 250 rpm. Cells were collected by centrifugation at 10,000×g for 10 minutes, and resuspended in 10 mM phosphate buffer. AI-2 (20 μM) and the respective analog (20 μM) were added to the E. coli or S. typhimurium suspension for 2 hours at 37° C. AI-2 dependent β-galactosidase production was quantified by the Miller assay.

[2] = system: pyocyanin production in P. aeruginosa PAO1; experiment: QS response (pyocyanin production); format: cell-based; conditions: pure culture P. aeruginosa PAO1, DPD analogs (100 μM)
Description: Identifying Modulators of P. aeruginosa QS. DPD analogs (100 μM) were screened for activity in P. aeruginosa PAO1 by monitoring pyocyanin production (FIG. 34b and FIG. 38).
The cells were grown with the analog at 3 mL total volume in 50 mL flasks in LB medium, with continuous shaking. Between 22-24 h, when the cells turned green after pyocyanin secretion, the pigment was extracted. The pyocyanin quantification assay was conducted as described. 2 mL chloroform was added to the 3 mL culture and pipetted up and down. 1 mL of the chloroform was transferred to a separate tube and the pyocyanin was re-extracted into 200 μL of 0.2 M HCl. The absorbance of the solution was measured at OD 520 nm. To calculate the concentration of pyocyanin extracted as μg/mL, the OD at 520 nm was multiplied by 17.07.

[3] = system: E. coli W3110 pCT6 dsRED; experiment: Tri-species synthetic ecosystem (E. coli, S. typhimurium, P. aeruginosa): AI-2 mediated dsRED expression; format: cell-based; conditions: tri-species culture, 40 μM analog, no exogenous AI-2, 24 h
Description: (§1) Effect of analogs in a tri-species synthetic ecosystem. […] Isobutyl-DPD (40 μM) and phenyl-DPD (40 μM) were added to a tri-species synthetic ecosystem created by culturing E. coli, S. typhimurium and P. aeruginosa in the same tubes. In order to differentiate and monitor the QS response from each organism, different and orthogonal reporter strains were used; in E. coli, AI-2 mediated dsRED expression, in S. typhimurium, AI-2 mediated β-galactosidase production; and in P. aeruginosa effects of AI-2 were examined for pyocyanin production.
(§2) S. typhimurium MET708, P. aeruginosa PAO1 and E. coli W3110 pCT6 dsRED were each cultured separately overnight in LB medium supplemented with the appropriate antibiotic. P. aeruginosa PAO1, S. typhimurium MET708 and E. coli W3110 pCT6 dsRED were diluted (25 μL:2.5 μL:100 μL) of the overnight culture respectively, into a single 2 mL final volume of fresh LB medium without antibiotics. […] The S. typhimurium lacZ (β-galactosidase) activity was measured after 4 h. The E. coli response was determined after 24 h, by fixing the cells with 1:1 cold 4% paraformaldehyde and using flow cytometric analysis. Samples were analyzed by flow cytometry (FACS Canto II, BD 394 Biosciences), with 30,000 gated events analyzed per sample. […]

[4] = system: S. typhimurium MET708; experiment: Tri-species synthetic ecosystem (E. coli, S. typhimurium, P. aeruginosa): AI-2 mediated β-galactosidase production; format: cell-based; conditions: tri-species culture, 40 μM analog, no exogenous AI-2, 4 h
Description: as §1, §2

[5] = system: P. aeruginosa PAO1; experiment: Tri-species synthetic ecosystem (E. coli, S. typhimurium, P. aeruginosa): pyocyanin production; format: cell-based; conditions: tri-species culture, 40 μM analog, no exogenous AI-2, 24 h
Description: as §1, §2

## O=C(C(=O)C(O)CO)c1ccccc1 (stereo not drawn) [Phenyl-DPD, Phenyl DPD]
[1]; E. coli LW7 pLW11 (luxS−), 20 μM AI-2 (DPD) + 20 μM analog
  inhibition of AI-2-mediated lsr expression (β-galactosidase), in words: no
[1]; Escherichia coli, read-out: IC50 (lsr expression in E. coli)
  IC50: > 40000 nM
[2]
  inhibition of pyocyanin production: some inhibition
[3]
  QS inhibition in E. coli (dsRED expression): largely ineffective
[4]
  QS inhibition in S. typhimurium (β-galactosidase production): largely ineffective
[5]
  QS inhibition in P. aeruginosa (pyocyanin production): retained some activity

## CC(C)CC(=O)C(=O)[C@@H](O)CO [Isobutyl-DPD, isobutyl-DPD]
[1]; E. coli ZK126 pLW11 (luxS+), cells produce their own AI-2
  effect on native lsr expression (QS response): significant knocked down; also recorded: potent QS “quencher”
[1]; Example 6
  IC50 (lsr expression in E. coli), in words: nanomolar range
[1]; concentration reducing lsr expression (β-galactosidase production) to 50% in the presence of 20 μM exogenously added synthetic DPD, read-out: IC50 of analog (nM) to inhibit QS in E. coli
  IC50: 54 nM
[2]
  inhibition of pyocyanin production: lack of inhibitory effects
[3]
  QS inhibition in E. coli (dsRED expression): inhibit all three species
[4]
  QS inhibition in S. typhimurium (β-galactosidase production): inhibit all three species

Reference: US8952192B2, “Phosphorylated and branched dihydroxy-pentane-dione (DPD) analogs as quorum sensing inhibitors in bacteria” (University of Maryland, College Park, priority 2011, dated 2015)
